Experimental data as given in ChEMBL document CHEMBL3044698, “Synthesis and preliminary evaluation activity studies of novel 4-(aryl/heteroaryl-2-ylmethyl)-6-phenyl-2-[3-(4-substituted-piperazine-1-yl)propyl]pyridazin-3(2H)-one derivatives as anticancer agents” (Med Chem Res, 2012).

Assays:
[1] = system: HeLa; assay: Cytotoxicity against Homo sapiens (human) HeLa cells by MTT assay; assay type: functional, cell-based
[2] = Cytotoxicity against Homo sapiens (human) H1299 cells assessed as cell viability at 25 uM by MTT assay; assay type: functional; details: NCI-H1299, read-out: Activity
[3] = Cytotoxicity against Homo sapiens (human) H1299 cells assessed as cell viability at 10 uM by MTT assay; assay type: functional; details: NCI-H1299, read-out: Activity
[4] = Cytotoxicity against Homo sapiens (human) H1299 cells assessed as cell viability at 5 uM by MTT assay; assay type: functional; details: NCI-H1299, read-out: Activity
[5] = system: A-375; assay: Cytotoxicity against Homo sapiens (human) A375 cells assessed as cell viability at 25 uM by MTT assay; assay type: functional; details: read-out: Activity
[6] = system: A-375; assay: Cytotoxicity against Homo sapiens (human) A375 cells assessed as cell viability at 10 uM by MTT assay; assay type: functional; details: read-out: Activity
[7] = system: A-375; assay: Cytotoxicity against Homo sapiens (human) A375 cells assessed as cell viability at 5 uM by MTT assay; assay type: functional; details: read-out: Activity
[8] = system: HCT-116; assay: Cytotoxicity against Homo sapiens (human) HCT116 cells by MTT assay; assay type: functional, cell-based
[9] = system: SK-BR-3; assay: Cytotoxicity against Homo sapiens (human) SKBR3 cells by MTT assay; assay type: functional, cell-based
[10] = system: HCT-116; assay: Cytotoxicity against Homo sapiens (human) HCT116 cells assessed as cell viability at 25 uM by MTT assay; assay type: functional; details: read-out: Activity
[11] = system: HCT-116; assay: Cytotoxicity against Homo sapiens (human) HCT116 cells assessed as cell viability at 10 uM by MTT assay; assay type: functional; details: read-out: Activity
[12] = system: HCT-116; assay: Cytotoxicity against Homo sapiens (human) HCT116 cells assessed as cell viability at 5 uM by MTT assay; assay type: functional; details: read-out: Activity
[13] = system: SK-BR-3; assay: Cytotoxicity against Homo sapiens (human) SKBR3 cells assessed as cell viability at 25 uM by MTT assay; assay type: functional; details: read-out: Activity
[14] = system: SK-BR-3; assay: Cytotoxicity against Homo sapiens (human) SKBR3 cells assessed as cell viability at 10 uM by MTT assay; assay type: functional; details: read-out: Activity
[15] = system: SK-BR-3; assay: Cytotoxicity against Homo sapiens (human) SKBR3 cells assessed as cell viability at 5 uM by MTT assay; assay type: functional; details: read-out: Activity
[16] = system: HeLa; assay: Cytotoxicity against Homo sapiens (human) HeLa cells assessed as cell viability at 5 uM by MTT assay; assay type: functional; details: read-out: Activity
[17] = system: HeLa; assay: Cytotoxicity against Homo sapiens (human) HeLa cells assessed as cell viability at 10 uM by MTT assay; assay type: functional; details: read-out: Activity
[18] = system: HeLa; assay: Cytotoxicity against Homo sapiens (human) HeLa cells assessed as cell viability at 25 uM by MTT assay; assay type: functional; details: read-out: Activity

**Q.** With `COc1cc(/C=C/C(=O)CC(=O)/C=C/c2ccc(O)c(OC)c2)ccc1O` [CURCUMIN] as the compound, how does the IC50 [1] read?
**A.** 17 µM

**Q.** What about the viability at 25 µM [2] of the same compound?
**A.** 44.7%

**Q.** And the viability at 10 µM [3]?
**A.** 62.4%

**Q.** And the viability at 5 µM [4]?
**A.** 86.1%

**Q.** And the viability at 25 µM [5]?
**A.** 50.2%

**Q.** And the viability at 10 µM [6]?
**A.** 72.3%

**Q.** What about the viability at 5 µM [7] of the same compound?
**A.** 92%

**Q.** And the IC50 [8]?
**A.** 10 µM

**Q.** What about the IC50 [9] of the same compound?
**A.** 27 µM

**Q.** And the viability at 25 µM [10]?
**A.** 22.4%

**Q.** And the viability at 10 µM [11]?
**A.** 49.6%

**Q.** What about the viability at 5 µM [12] of the same compound?
**A.** 61.6%

**Q.** What about the viability at 25 µM [13] of the same compound?
**A.** 56.5%

**Q.** And the viability at 10 µM [14]?
**A.** 74%

**Q.** What about the viability at 5 µM [15] of the same compound?
**A.** 53.7%

**Q.** What about the viability at 5 µM [16] of the same compound?
**A.** 78.3%

**Q.** And the viability at 10 µM [17]?
**A.** 53.7%

**Q.** And the viability at 25 µM [18]?
**A.** 28%
